From patent US20050112573A1, “Method of detecting toxic substance” (priority 2001, published 2005)

Test system: yeast genes (level of expressed mRNA)
Test: DNA chip analysis of expressed mRNA of yeast genes after 2 h culture with a toxic chemical substance
Format: cell-based, Saccharomyces cerevisiae S288C
Method: Yeast (Saccharomyces cerevtisiae S288C (α SUC2mal mel gap2 CUP1)) were cultured at 25° C. on YPD medium (yeast extract 1%, polypepton 2%, glucose 2%). One of toxic chemical substances was added to the cell at logarithmic growth phase, and the cell was further cultured for two hours. Cell was cultured without any chemical substance in the same condition, and was used as control. Concentrations of the chemical substances were defined to inhibit the growth of the yeast but not lead to death.
After the completion of cultivation, the culture was centrifuged to collect the cells. To the cells, sodium acetate buffer (50 mM sodium acetate, 10 mM EDTA, 1% SDS) was added, and the mixture was shaken at 65° C. for five minutes, followed by returning to room temperature, and obtaining the supernatant, which procedure was repeated two times. To the supernatant, ½ amount of a solution of phenol/chloroform was added, and the mixture was centrifuged to give a supernatant, which was added with an equal amount of chloroform, and the mixture was centrifuged to give a supernatant. To the supernatant, an equal amount of isopropanol containing 0.3 M sodium acetate was added, and the mixture was allowed to stand at room temperature for 30 minutes, after which the mixture was centrifuged to give a sediment of the whole RNAs. Seventy % ethanol was added to the sediment, and the mixture was again centrifuged to give a sediment, which was then dried and dissolved in water. mRNA was isolated from the whole RNAs as followings. In view of the fact that a poly A chain is attached to the 3′ terminus of mRNA, a polynucleotide having a poly T structure which was immobilized on the surface of latex beads was used to trap the mRNA, and then the mRNA was washed and eluted with spine column (Oligotex-dT30<Super>mRNA Purification Kit, Takara). Reverse transcription of the mRNA was conducted with a reverse transcriptase (Super Script II Reverse Transcriptase; catalogue No. 18064-014, GibcoBRL) using fluorescence-labeled nucleotides to give cDNAs that were introduced with Cy3-dUTP or Cy5-dUTP during the reverse transcription.
The labeled cDNAs were dissolved in TE buffer (10 mM Tris-HCl/1 mM EDTA, pH8.0), and the solution was dropped on the DNA chip containing the whole genes of yeast (DNA Chip Research Inc. Japan) so that the cDNAs were hybridized on the DNA chip at 65° C. for over 12 hours. The fluoresces intensity of the DNA chip was read with a scanner, and the ratio relative to the fluorescence intensity resulting from the absence of chemical substance was estimated as the following, which is shown in Tables 1 to 9: [formula]
In the Tables, “Intensity” indicated in the rightmost column is a value of the level of expressed mRNA of each gene in control cells as divided by the average level of the expressions of the whole genes.

γ-hexachlorocyclohexane [(7)]
The level of expressed mRNA in the presence of chemical substance/ (yeast gene YAL053W, ratio to control without chemical): 0.7 | The level of expressed mRNA in the presence of chemical substance/The level of expressed mRNA in the absence of chemical substance (yeast gene YAR010C): 1.9 | The level of expressed mRNA in the presence of chemical substance/The level of expressed mRNA in the absence of chemical substance (yeast gene YBL005W-A): 1.4 | The level of expressed mRNA in the presence of chemical substance/The level of expressed mRNA in the absence of chemical substance (yeast gene YBL041W): 1.6 | The level of expressed mRNA in the presence of chemical substance/The level of expressed mRNA in the absence of chemical substance (yeast gene YBL043W): 1.5 | The level of expressed mRNA in the presence of chemical substance/ (yeast gene YBL048W, ratio to control without chemical substance, 2 h culture): 1.9 | The level of expressed mRNA in the presence of chemical substance/The level of expressed mRNA in the absence of chemical substance (yeast gene YBL078C): 3.1 | The level of expressed mRNA in the presence of chemical substance/ (yeast gene YBL107C, ratio to control without chemical substance, 2 h culture): 2.1 | The level of expressed mRNA in the presence of chemical substance/in the absence of chemical substance (yeast gene YBR036C): 1.3 | The level of expressed mRNA in the presence of chemical substance/The level of expressed mRNA in the absence of chemical substance (yeast gene YBR214W): 1.1 | The level of expressed mRNA in the presence of chemical substance/in the absence of chemical substance (yeast gene YBR298C): 1.7 | The level of expressed mRNA in the presence of chemical substance/The level of expressed mRNA in the absence of chemical substance (yeast gene YCL020W): 1.5 | The level of expressed mRNA in the presence of chemical substance/The level of expressed mRNA in the absence of chemical substance (yeast gene YCL027W): 1.0 | The level of expressed mRNA in the presence of chemical substance/The level of expressed mRNA in the absence of chemical substance (yeast gene YCR004C): 1.4 | The level of expressed mRNA in the presence of chemical substance/The level of expressed mRNA in the absence of chemical substance (yeast gene YCR071C): 1.4 | The level of expressed mRNA in the presence of chemical substance/The level of expressed mRNA in the absence of chemical substance (yeast gene YCR088W): 1.2 | The level of expressed mRNA in the presence of chemical substance/The level of expressed mRNA in the absence of chemical substance (yeast gene YDL008W): 2.0 | The level of expressed mRNA in the presence of chemical substance/ (yeast gene YDL072C, ratio to control without chemical): 1.8 | The level of expressed mRNA in the presence of chemical substance/in the absence of chemical substance (yeast gene YDL078C): 1.7 | The level of expressed mRNA in the presence of chemical substance/ (yeast gene YDL204W, ratio to control without chemical): 3.2 | The level of expressed mRNA in the presence of chemical substance/in the absence of chemical substance (yeast gene YDL215C): 1.9 | The level of expressed mRNA in the presence of chemical substance/ (yeast gene YDL222C, ratio to control without chemical): 1.0 | The level of expressed mRNA in the presence of chemical substance/The level of expressed mRNA in the absence of chemical substance (yeast gene YDL238C): 1.4 | The level of expressed mRNA in the presence of chemical substance/The level of expressed mRNA in the absence of chemical substance (yeast gene YDR055W): 1.5 | The level of expressed mRNA in the presence of chemical substance/The level of expressed mRNA in the absence of chemical substance (yeast gene YDR084C): 0.9 | The level of expressed mRNA in the presence of chemical substance/The level of expressed mRNA in the absence of chemical substance (yeast gene YDR085C): 4.1 | The level of expressed mRNA in the presence of chemical substance/The level of expressed mRNA in the absence of chemical substance (yeast gene YDR104C): 1.0 | The level of expressed mRNA in the presence of chemical substance/The level of expressed mRNA in the absence of chemical substance (yeast gene YDR115W): 1.6 | The level of expressed mRNA in the presence of chemical substance/The level of expressed mRNA in the absence of chemical substance (yeast gene YDR259C): 2.8 | The level of expressed mRNA in the presence of chemical substance/in the absence of chemical substance (yeast gene YDR297W): 0.6 | The level of expressed mRNA in the presence of chemical substance/The level of expressed mRNA in the absence of chemical substance (yeast gene YDR315C): 1.4 | The level of expressed mRNA in the presence of chemical substance/ (yeast gene YDR330W, ratio to control without chemical substance, 2 h culture): 1.3 | The level of expressed mRNA in the presence of chemical substance/The level of expressed mRNA in the absence of chemical substance (yeast gene YDR358W): 2.8 | The level of expressed mRNA in the presence of chemical substance/in the absence of chemical substance (yeast gene YDR387C): 1.3 | The level of expressed mRNA in the presence of chemical substance/The level of expressed mRNA in the absence of chemical substance (yeast gene YDR388W): 1.1 | The level of expressed mRNA in the presence of chemical substance/ (yeast gene YDR411C, ratio to control without chemical substance, 2 h culture): 2.0 | The level of expressed mRNA in the presence of chemical substance/The level of expressed mRNA in the absence of chemical substance (yeast gene YDR432W): 0.5 | The level of expressed mRNA in the presence of chemical substance/The level of expressed mRNA in the absence of chemical substance (yeast gene YDR481C): 0.7 | The level of expressed mRNA in the presence of chemical substance/The level of expressed mRNA in the absence of chemical substance (yeast gene YDR510W): 1.6 | The level of expressed mRNA in the presence of chemical substance/ (yeast gene YDR511W, ratio to control without chemical substance, 2 h culture): 1.5 | The level of expressed mRNA in the presence of chemical substance/ (yeast gene YDR545W, ratio to control without chemical substance, 2 h culture): 1.2 | The level of expressed mRNA in the presence of chemical substance/ (yeast gene YEL001C, ratio to control without chemical): 1.1 | The level of expressed mRNA in the presence of chemical substance/The level of expressed mRNA in the absence of chemical substance (yeast gene YEL042W): 0.5 | The level of expressed mRNA in the presence of chemical substance/The level of expressed mRNA in the absence of chemical substance (yeast gene YEL066W): 1.8 | The level of expressed mRNA in the presence of chemical substance/ (yeast gene YER004W, ratio to control without chemical substance, 2 h culture): 1.4 | The level of expressed mRNA in the presence of chemical substance/ (yeast gene YER035W, ratio to control without chemical substance, 2 h culture): 1.9 | The level of expressed mRNA in the presence of chemical substance/The level of expressed mRNA in the absence of chemical substance (yeast gene YER039C): 1.3 | The level of expressed mRNA in the presence of chemical substance/ (yeast gene YER079W, ratio to control without chemical substance, 2 h culture): 1.9 | The level of expressed mRNA in the presence of chemical substance/ (yeast gene YER106W, ratio to control without chemical): 1.0 | The level of expressed mRNA in the presence of chemical substance/The level of expressed mRNA in the absence of chemical substance (yeast gene YER107C): 1.0 | The level of expressed mRNA in the presence of chemical substance/The level of expressed mRNA in the absence of chemical substance (yeast gene YER130C): 1.5 | The level of expressed mRNA in the presence of chemical substance/ (yeast gene YER158C, ratio to control without chemical substance, 2 h culture): 1.2 | The level of expressed mRNA in the presence of chemical substance/ (yeast gene YER163C, ratio to control without chemical substance, 2 h culture): 1.5 | The level of expressed mRNA in the presence of chemical substance/ (yeast gene YER175C, ratio to control without chemical substance, 2 h culture): 2.3 | The level of expressed mRNA in the presence of chemical substance/ (yeast gene YFL006W, ratio to control without chemical substance, 2 h culture): 1.0
